In US20030044909A1, “Melatonin-receptor expression cells and thier uses” (JCR PHARMACEUTICALS Co., Ltd., priority 1997, published 2003):

target: mel-1a receptor expressed in CHO cell (Homo sapiens, UniProt P48039); conditions: after 2 min stimulation; mel-1a/CHO cells
Sequence (P48039 whole entry): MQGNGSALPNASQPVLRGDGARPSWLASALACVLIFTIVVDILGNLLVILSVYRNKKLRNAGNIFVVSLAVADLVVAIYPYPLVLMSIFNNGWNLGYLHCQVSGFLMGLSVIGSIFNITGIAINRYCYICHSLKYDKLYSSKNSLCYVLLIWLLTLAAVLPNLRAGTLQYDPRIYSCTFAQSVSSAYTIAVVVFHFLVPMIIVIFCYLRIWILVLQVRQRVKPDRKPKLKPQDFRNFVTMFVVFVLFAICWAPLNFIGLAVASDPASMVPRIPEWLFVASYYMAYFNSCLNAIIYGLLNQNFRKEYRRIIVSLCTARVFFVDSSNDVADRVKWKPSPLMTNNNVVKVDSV
Experimental: mel-1a/CHO cells were cultivated in advance in the DMEM medium containing 800 μg/ml G418 and 10% FBS, and mel-1a/CHO cells in the logarithmic growth phase were washed with PBS, treated with trypsin and diluted with the same medium to a concentration of 2.5×10^5/ml. 1 ml of cell suspension was seeded in each cell cup for cytosensor, and the cell cups were filled on the outside with 2 ml of the medium and then left on standing overnight udner th conditions of 5% CO2/37° C.
While paying attention not to cause air bubbles to mingle, a spacer was disposed on the bottom of each cell cup with use of sterile tweezers on the following day. When air bubbles were below the spacer, they were to be removed with a pipette. A capsule insert was placed in each cup, while preventing air bubbles from mingling, and the medium in the 1 ml portion was added from the top to thereby bury the cup in the medium, whereby it was to be ascertained that no air bubble had been drained or mingled into the spacer and insert.
Powdered low buffer RPM1 1640 medium (MDC) was dissolved in 1 liter of distilled water for tissue culture (Cosmo Bio), and the solution was adjusted to pH 7.4 and then suction-filtered through a 0.45 μm filter.
The Cyto software package of a personal computer was started up. A measuring medium was set in a ctyosensor, and fluid feeding system was switched for the measuring medium. The fluid inside the sensor chamber was aspirated out, and the measuring medium was placed in the 1.5 ml portion in to each cell, where a capsule cell prepared in advance was disposed while preventing air bubbles from mingling. The sensor chamber was connected to a cytosensor without causing air bubbles to mingle.
Each of the prepared samples was set on the cytosensor under the conditions where the metabolic rate was stabilized. Measurement with the cytosensor was performed by switching the fluid feeding from the measuring medium to the sample solution to stimulate the cells, then putting the fluid-feeding back to the measuring medium and measuring a change caused in metabolic rate of the cells, whereby stimulation with the sample was effected for 2 min. and subsequently the measuring medium continued to be fluid-fed until the metabolic rate was returned to the level determined prior to stimulation with the sample. […] Accordingly, stimulation with the sample was given at a regular interval of 40 min.
The cytosensor was designed to detect the release outside the cell of hydrogen ions, which is understood to reflect the metabolic activity of the cell, as a rate of change in extracellular hydrogen ion concentration. Upon binding of a ligand to the receptor expressed on the cell surface, intracellular signal transduction takes place, resulting in increased cellular metabolic activity to thereby release hydrogen ions outside the cell.

SMILES	time for the metabolic activity to decline to the level prior to stimulation
COc1ccc2[nH]cc(CCNC(C)=O)c2c1 [melatonin]	about 40 min

same assay, conditions: mel-1a/CHO cells, cytosensor (FIG. 11)

SMILES	increase in metabolic rate via the mel-1a receptor (responsiveness, specificity)
COc1ccc2[nH]cc(CCNC(C)=O)c2c1 [melatonin]	responds specifically to melatonin alone
N[C@@H](Cc1c[nH]c2ccccc12)C(=O)O [tryptophan]	not to bring about an increase in metabolic rate
NCCc1c[nH]c2ccc(O)cc12 [serotonin]	not to bring about an increase in metabolic rate
COc1ccc2[nH]cc(C[C@H](N)C(=O)O)c2c1 [5-methoxytryptophan]	not to bring about an increase in metabolic rate
COc1ccc2[nH]cc(CCN)c2c1 [5-methoxytryptamine]	not to bring about an increase in metabolic rate
CC(=O)NCCc1c[nH]c2ccc(O)cc12 [N-acetylserotonin]	not to bring about an increase in metabolic rate
